This passage reports inhibition and Inhibition results from ChEMBL document CHEMBL1136641, “Anastatins A and B, new skeletal flavonoids with hepatoprotective activities from the desert plant Anastatica hierochuntica” (2003).

For test [1], the species on record is Mus musculus. In words: Inhibitory activity derived from Anastatica hierochuntica on D-Gal-induced cytotoxicity in primary cultured mouse hepatocytes at a concentration of 30 uM. It counts as functional. The conditions noted are these: Hepatocyte.
For test [2], the species on record is Mus musculus. In words: Inhibitory activity derived from Anastatica hierochuntica on D-Gal-induced cytotoxicity in primary cultured mouse hepatocytes at a concentration of 10 uM. The note with it: Hepatocyte. Format: functional.
The species entered for test [3] is Mus musculus. In words: Inhibitory activity derived from Anastatica hierochuntica on D-Gal-induced cytotoxicity in primary cultured mouse hepatocytes at a concentration of 3 uM. Format: functional. The conditions noted are these: Hepatocyte.
Test [4] is filed under the species Mus musculus. Kind of test: Inhibitory activity derived from Anastatica hierochuntica on D-Gal-induced cytotoxicity in primary cultured mouse hepatocytes at a concentration of 0 uM. Format: functional, Hepatocyte.

`COc1cc([C@H]2Oc3cc(O)cc(O)c3C(=O)[C@@H]2O)ccc1O` had an inhibition at 30 µM in the test filed under Mus musculus [1] of 36.7%. Also, the inhibition at 10 µM in the test filed under Mus musculus [2] is 7.3%. Besides, the inhibition at 3 µM in the test listed under Mus musculus [3] was 4%. Besides, the Inhibition in the test listed under Mus musculus [4] came to 0%.
In the same order, the values of `O=C1c2c(O)cc(O)cc2O[C@@H](c2ccc(O)c(O)c2)[C@H]1O` [(+)-EPITAXIFOLIN] are 21.7%, 11%, 2.1% and 0%.
Consider `O=C1c2c(O)cc(O)cc2O[C@H](c2ccc(O)c(O)c2)[C@H]1O` [(+)-TAXIFOLIN], for which the inhibition at 30 µM in the test filed under Mus musculus [1] stood at 13%. Moreover, the inhibition at 10 µM in the test filed under Mus musculus [2] turned out to be 11.7%. In the test listed under Mus musculus [3], this compound displayed an inhibition at 3 µM of 9.6%. The same compound registered an Inhibition in the test filed under Mus musculus [4] of 0%.
For `O=C1C[C@@H](c2ccc(O)cc2)Oc2cc3oc4cc(O)c(O)cc4c3c(O)c21` [ANASTATIN A], the inhibition at 30 µM in the test listed under Mus musculus [1] is 46.2%. At 10 µM the inhibition in the test filed under Mus musculus [2] was 31.5%. Further, the inhibition at 3 µM in the test filed under Mus musculus [3] came out at 17.2%. Also, the Inhibition in the test listed under Mus musculus [4] was determined as 0%.
In the same order, the values of `O=C1C[C@@H](c2ccc(O)cc2)Oc2c1c(O)cc1oc3cc(O)c(O)cc3c21` [ANASTATIN B] are 55%, 40.5%, 28.6% and 0%.
In turn, `O=C1c2c(O)cc(O)cc2O[C@H](c2ccc(O)cc2)[C@H]1O` [DIHYDROKAEMPFEROL] displayed an inhibition at 30 µM in the test filed under Mus musculus [1] of 33.2%. In the test filed under Mus musculus [2], this compound registered an inhibition at 10 µM of 14.2%. Moreover, in the test filed under Mus musculus [3], the inhibition at 3 µM is 7.8%. In the test filed under Mus musculus [4], this compound gave an Inhibition of 0%.
`O=C1C[C@@H](c2ccc(O)c(O)c2)Oc2cc(O)cc(O)c21` [ERIODICTYOL] came in with an inhibition at 30 µM in the test filed under Mus musculus [1] of 27.3%. Further, in the test listed under Mus musculus [2], the inhibition at 10 µM came to 8.3%. The inhibition at 3 µM in the test filed under Mus musculus [3] was 5.9%. Also, in the test filed under Mus musculus [4], the Inhibition is reported as 0%.
In the same order, the values of `O=C1C[C@@H](c2ccc(O)cc2)Oc2cc(O)cc(O)c21` [NARINGENIN] are 43.1%, 9.3%, 2.9% and 0%.
For `COc1cc(C2Oc3cc([C@H]4Oc5cc(O)cc(O)c5C(=O)[C@@H]4O)ccc3OC2CO)ccc1O` (stereo partly specified) [SILIBININ] the same measures were 45.2%, 7.7%, 4.8% and 0%.

One may read the inhibition as the percentage by which the read-out fell short of the control. One may read the Inhibition as the drop in the measured response relative to a control, in per cent.
